Test results published in PubChem BioAssay AID1963442 (Molecular Pharmacology Branch, DTP, NCI, 2024).

System: MPNST complex spheroid with HUVEC/MSC, growth, % test/control
Assay: Anticancer human tumor MPNST cell line growth inhibition [Asc];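 further: compounds left on spheroids for seven days before reading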
Conditions: for IC50: curve of first compound; for viability, T/C: stronger effect = lower value
In short: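 Concentration series start at each agent's clinical Cmax, or at 10 microM when none is established, and drop in half-log steps; agents are applied alone or together to complex spheroids built with HUVEC and hMSC.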

[1] = second compound 0.00316 µM, first compound 0.0316 µM
[2] = second compound 0.00316 µM, first compound 0.1 µM
[3] = second compound 0.00316 µM, first compound 0.316 µM
[4] = second compound 0.00316 µM, first compound 1 µM
[5] = second compound 0.00316 µM, first compound 3.16 µM
[6] = second compound 0.00316 µM, first compound 10 µM
[7] = second compound 0.01 µM, first compound 0.0316 µM
[8] = second compound 0.01 µM, first compound 0.1 µM
[9] = second compound 0.01 µM, first compound 0.316 µM
[10] = second compound 0.01 µM, first compound 1 µM
[11] = second compound 0.01 µM, first compound 3.16 µM
[12] = second compound 0.01 µM, first compound 10 µM
[13] = second compound 0.0316 µM, first compound 0.0316 µM
[14] = second compound 0.0316 µM, first compound 0.1 µM
[15] = second compound 0.0316 µM, first compound 0.316 µM
[16] = second compound 0.0316 µM, first compound 1 µM
[17] = second compound 0.0316 µM, first compound 3.16 µM
[18] = second compound 0.0316 µM, first compound 10 µM
[19] = second compound 0.1 µM, first compound 0.0316 µM
[20] = second compound 0.1 µM, first compound 0.1 µM
[21] = second compound 0.1 µM, first compound 0.316 µM
[22] = second compound 0.1 µM, first compound 1 µM
[23] = second compound 0.1 µM, first compound 3.16 µM
[24] = second compound 0.1 µM, first compound 10 µM
[25] = second compound 0.316 µM, first compound 0.0316 µM
[26] = second compound 0.316 µM, first compound 0.1 µM
[27] = second compound 0.316 µM, first compound 0.316 µM
[28] = second compound 0.316 µM, first compound 1 µM
[29] = second compound 0.316 µM, first compound 3.16 µM
[30] = second compound 0.316 µM, first compound 10 µM
[31] = second compound 1 µM, first compound 0.0316 µM
[32] = second compound 1 µM, first compound 0.1 µM
[33] = second compound 1 µM, first compound 0.316 µM
[34] = second compound 1 µM, first compound 1 µM
[35] = second compound 1 µM, first compound 3.16 µM
[36] = second compound 1 µM, first compound 10 µM

SMILES: C#Cc1c(F)ccc2cc(O)cc(-c3ncc4c(N5CC6CCC(C5)N6)nc(OCC56CCCN5CC(F)C6)nc4c3F)c12 (stereo not drawn) + CNC(C)C(=O)NC1CN(S(=O)(=O)c2cccc(S(=O)(=O)N3CCC4CCC(C(=O)NC(c5ccccc5)c5ccccc5)N4C(=O)C(NC(=O)C(C)NC)C3)c2)CCC2CCC(C(=O)NC(c3ccccc3)c3ccccc3)N2C1=O
- IC50 (second compound 0.00316 µM): > 10 µM
- IC50 (second compound 0.01 µM): > 10 µM
- IC50 (second compound 0.0316 µM): > 10 µM
- IC50 (second compound 0.1 µM): > 10 µM
- IC50 (second compound 0.316 µM): > 10 µM
- IC50 (second compound 1 µM): > 10 µM
- viability, T/C [1]: 65.6%
- viability, T/C [2]: 43.9%
- viability, T/C [3]: 57.7%
- viability, T/C [4]: 78.2%
- viability, T/C [5]: 75.3%
- viability, T/C [6]: 53%
- viability, T/C [7]: 96%
- viability, T/C [8]: 99.5%
- viability, T/C [9]: 60.1%
- viability, T/C [10]: 63.5%
- viability, T/C [11]: 73.1%
- viability, T/C [12]: 46.2%
- viability, T/C [13]: 103%
- viability, T/C [14]: 66.8%
- viability, T/C [15]: 69%
- viability, T/C [16]: 70.5%
- viability, T/C [17]: 52.1%
- viability, T/C [18]: 56.6%
- viability, T/C [19]: 56%
- viability, T/C [20]: 67.8%
- viability, T/C [21]: 78.2%
- viability, T/C [22]: 64.1%
- viability, T/C [23]: 63.2%
- viability, T/C [24]: 53.1%
- viability, T/C [25]: 73.2%
- viability, T/C [26]: 75.1%
- viability, T/C [27]: 70%
- viability, T/C [28]: 58.3%
- viability, T/C [29]: 60.3%
- viability, T/C [30]: 67.3%
- viability, T/C [31]: 76%
- viability, T/C [32]: 79.5%
- viability, T/C [33]: 69.4%
- viability, T/C [34]: 82.5%
- viability, T/C [35]: 62.2%
- viability, T/C [36]: 84.3%

SMILES: C=C(F)C(=O)N1CCN(c2nc(OCC3CCCN3C)nc3c2CCN(c2cccc4cccc(Cl)c24)C3)CC1CC#N (stereo not drawn) + CNC(C)C(=O)NC1CN(S(=O)(=O)c2cccc(S(=O)(=O)N3CCC4CCC(C(=O)NC(c5ccccc5)c5ccccc5)N4C(=O)C(NC(=O)C(C)NC)C3)c2)CCC2CCC(C(=O)NC(c3ccccc3)c3ccccc3)N2C1=O
- IC50 (second compound 0.00316 µM): 3.75 µM
- IC50 (second compound 0.01 µM): 4.2 µM
- IC50 (second compound 0.0316 µM): 1.81 µM
- IC50 (second compound 0.1 µM): 3.55 µM
- IC50 (second compound 0.316 µM): 3.43 µM
- IC50 (second compound 1 µM): 3.64 µM
- viability, T/C [1]: 77%
- viability, T/C [2]: 75.2%
- viability, T/C [3]: 65.9%
- viability, T/C [4]: 89.8%
- viability, T/C [5]: 58.3%
- viability, T/C [6]: 1.84%
- viability, T/C [7]: 85.9%
- viability, T/C [8]: 75.9%
- viability, T/C [9]: 97.4%
- viability, T/C [10]: 85%
- viability, T/C [11]: 66.2%
- viability, T/C [12]: 0.9%
- viability, T/C [13]: 99.4%
- viability, T/C [14]: 76.5%
- viability, T/C [15]: 81.4%
- viability, T/C [16]: 54.6%
- viability, T/C [17]: 46.9%
- viability, T/C [18]: 1%
- viability, T/C [19]: 79.3%
- viability, T/C [20]: 58.5%
- viability, T/C [21]: 88.4%
- viability, T/C [22]: 73.5%
- viability, T/C [23]: 55.6%
- viability, T/C [24]: 1.36%
- viability, T/C [25]: 103%
- viability, T/C [26]: 52.8%
- viability, T/C [27]: 61%
- viability, T/C [28]: 69.5%
- viability, T/C [29]: 57%
- viability, T/C [30]: 1.32%
- viability, T/C [31]: 91.9%
- viability, T/C [32]: 60.4%
- viability, T/C [33]: 51%
- viability, T/C [34]: 77.1%
- viability, T/C [35]: 56.8%
- viability, T/C [36]: 0.71%

SMILES: C=CC(=O)N1CCN(c2nc(=O)n(-c3c(C)ccnc3C(C)C)c3nc(-c4c(O)cccc4F)c(F)cc23)C(C)C1 (stereo not drawn) + CNC(C)C(=O)NC1CN(S(=O)(=O)c2cccc(S(=O)(=O)N3CCC4CCC(C(=O)NC(c5ccccc5)c5ccccc5)N4C(=O)C(NC(=O)C(C)NC)C3)c2)CCC2CCC(C(=O)NC(c3ccccc3)c3ccccc3)N2C1=O
- IC50 (second compound 0.00316 µM): > 10 µM
- IC50 (second compound 0.01 µM): > 10 µM
- IC50 (second compound 0.0316 µM): > 10 µM
- IC50 (second compound 0.1 µM): > 10 µM
- IC50 (second compound 0.316 µM): > 10 µM
- IC50 (second compound 1 µM): > 10 µM
- viability, T/C [1]: 81.6%
- viability, T/C [2]: 98.1%
- viability, T/C [3]: 94.1%
- viability, T/C [4]: 102%
- viability, T/C [5]: 110%
- viability, T/C [6]: 128%
- viability, T/C [7]: 81.2%
- viability, T/C [8]: 101%
- viability, T/C [9]: 84%
- viability, T/C [10]: 112%
- viability, T/C [11]: 114%
- viability, T/C [12]: 145%
- viability, T/C [13]: 96.1%
- viability, T/C [14]: 69.1%
- viability, T/C [15]: 127%
- viability, T/C [16]: 109%
- viability, T/C [17]: 125%
- viability, T/C [18]: 185%
- viability, T/C [19]: 101%
- viability, T/C [20]: 92.7%
- viability, T/C [21]: 117%
- viability, T/C [22]: 107%
- viability, T/C [23]: 127%
- viability, T/C [24]: 161%
- viability, T/C [25]: 73%
- viability, T/C [26]: 79.5%
- viability, T/C [27]: 113%
- viability, T/C [28]: 106%
- viability, T/C [29]: 115%
- viability, T/C [30]: 148%
- viability, T/C [31]: 98.4%
- viability, T/C [32]: 99.9%
- viability, T/C [33]: 102%
- viability, T/C [34]: 79%
- viability, T/C [35]: 143%
- viability, T/C [36]: 154%

SMILES: CCN1C(C(=O)NC23CCC(C(=O)O)(CC2)CC3)C(c2cccc(Cl)c2F)C2(C(=O)Nc3cc(Cl)ccc32)C12CCCCC2 (stereo not drawn) + CNC(C)C(=O)NC1CN(S(=O)(=O)c2cccc(S(=O)(=O)N3CCC4CCC(C(=O)NC(c5ccccc5)c5ccccc5)N4C(=O)C(NC(=O)C(C)NC)C3)c2)CCC2CCC(C(=O)NC(c3ccccc3)c3ccccc3)N2C1=O
- IC50 (second compound 0.00316 µM): > 3 µM
- IC50 (second compound 0.01 µM): > 3 µM
- IC50 (second compound 0.0316 µM): > 3 µM
- IC50 (second compound 0.1 µM): > 3 µM
- IC50 (second compound 0.316 µM): > 3 µM
- IC50 (second compound 1 µM): > 3 µM
- viability, T/C (second compound 0.00316 µM, first compound 0.00949 µM): 98.4%
- viability, T/C (second compound 0.00316 µM, first compound 0.03 µM): 64.1%
- viability, T/C (second compound 0.00316 µM, first compound 0.0949 µM): 79.5%
- viability, T/C (second compound 0.00316 µM, first compound 0.3 µM): 85.6%
- viability, T/C (second compound 0.00316 µM, first compound 0.949 µM): 74.1%
- viability, T/C (second compound 0.00316 µM, first compound 3 µM): 76%
- viability, T/C (second compound 0.01 µM, first compound 0.00949 µM): 100%
- viability, T/C (second compound 0.01 µM, first compound 0.03 µM): 106%
- viability, T/C (second compound 0.01 µM, first compound 0.0949 µM): 86.3%
- viability, T/C (second compound 0.01 µM, first compound 0.3 µM): 64.1%
- viability, T/C (second compound 0.01 µM, first compound 0.949 µM): 78.9%
- viability, T/C (second compound 0.01 µM, first compound 3 µM): 63.4%
- viability, T/C (second compound 0.0316 µM, first compound 0.00949 µM): 87.2%
- viability, T/C (second compound 0.0316 µM, first compound 0.03 µM): 66.3%
- viability, T/C (second compound 0.0316 µM, first compound 0.0949 µM): 69.3%
- viability, T/C (second compound 0.0316 µM, first compound 0.3 µM): 70.5%
- viability, T/C (second compound 0.0316 µM, first compound 0.949 µM): 68.8%
- viability, T/C (second compound 0.0316 µM, first compound 3 µM): 68.1%
- viability, T/C (second compound 0.1 µM, first compound 0.00949 µM): 92.9%
- viability, T/C (second compound 0.1 µM, first compound 0.03 µM): 77.7%
- viability, T/C (second compound 0.1 µM, first compound 0.0949 µM): 70.3%
- viability, T/C (second compound 0.1 µM, first compound 0.3 µM): 80.6%
- viability, T/C (second compound 0.1 µM, first compound 0.949 µM): 58.5%
- viability, T/C (second compound 0.1 µM, first compound 3 µM): 64.6%
- viability, T/C (second compound 0.316 µM, first compound 0.00949 µM): 68.8%
- viability, T/C (second compound 0.316 µM, first compound 0.03 µM): 71.5%
- viability, T/C (second compound 0.316 µM, first compound 0.0949 µM): 86%
- viability, T/C (second compound 0.316 µM, first compound 0.3 µM): 68.2%
- viability, T/C (second compound 0.316 µM, first compound 0.949 µM): 68.1%
- viability, T/C (second compound 0.316 µM, first compound 3 µM): 62.1%
- viability, T/C (second compound 1 µM, first compound 0.00949 µM): 97%
- viability, T/C (second compound 1 µM, first compound 0.03 µM): 68.2%
- viability, T/C (second compound 1 µM, first compound 0.0949 µM): 87.7%
- viability, T/C (second compound 1 µM, first compound 0.3 µM): 65.3%
- viability, T/C (second compound 1 µM, first compound 0.949 µM): 65.6%
- viability, T/C (second compound 1 µM, first compound 3 µM): 70.2%
